Measurements: PMC9200282, “GPR15L is an epithelial inflammation-derived pruritogen” (Science Advances, 2022)

What was measured:
Mrgpra3 DRG neurons = assay: Whole-cell patch clamp of Mrgpra3-Cre-eGFP DRG neurons; assay type: cell-based, mouse; details: chloroquine 100 μM, pH 7.4
Protocol: Whole-cell patch clamp was performed on Mrgrpa3-Cre-eGFP neurons as previously described ([67]). Briefly, DRG neurons collected from Mrgpra3-Cre-eGFP mice were cultured on coverslips for 48 to 72 hours. Whole-cell current clamp recordings were performed on dissociated DRG neurons expressing eGFP. Data were recorded with an Axon 700B amplifier and pCLAMP 11 software (Molecular Devices, Sunnyvale). Pipette electrodes were pulled with P-97 microelectrode puller (Sutter Instrument) from borosilicate glass (World Precision Instruments Inc.) with resistances of 2 to 4 megohms. The extracellular solution contained 140 mM NaCl, 4 mM KCl, 2 mM CaCl2, 1 mM MgCl2, 10 mM Hepes, and 10 mM glucose with a pH of 7.4 and an osmolality of 300 mosm/kg. The pipette solution contained 140 mM KCl, 1 mM MgCl2, 1 mM EGTA, 10 mM Hepes, 3 mM adenosine 5′-triphosphate, and 0.5 mM guanosine 5′-triphosphate with a pH of 7.4 and an osmolality of 300 mosm/kg.

DRG neurons = assay: Calcium imaging of dissociated DRG neurons expressing GCaMP6f; assay type: cell-based, mouse; details: chloroquine 100 μM, histamine 100 μM, capsaicin 10 μM, sequential challenge
Protocol: Primary cultures of DRG neurons were generated from C57BL/6N mice as described previously ([65]). […] Imaging was performed with an ORCA-Flash 4.0 […] digital complementary metal-oxide semiconductor camera (Hamamatsu, Bridgewater, NJ) at 1 Hz. Fluorescence intensity in hand-drawn regions of interest was extracted using HCImage (Hamamatsu) and plotted against time. The R package […] was used to generate a heatmap plot to visualize fluorescence signals in all the neurons.

mast cell = details: through MRGPRs; cited from earlier work
Source text: In particular, MRGPRX2 and the mouse ortholog Mrgprb2 are receptors for many cationic molecules ([22]–[25]). Activation of MRGPRs on mast cells can cause immunoglobulin E–independent allergic reactions (pseudo-allergy) including extravasation, itch, and pain ([22], [26]). Some human and tick β-defensins can activate not only MRGPRX2/Mrgprb2 but also MRGPRX1/Mrgprc11, which are expressed on sensory neurons ([27]).

Compound | neurons firing action potentials (Mrgpra3 DRG neurons) | response of Gpr15l-responsive DRG neurons to other pruritogens/capsaicin (DRG neurons) | mast cell degranulation (mast cell)
CCN(CC)CCCC(C)Nc1ccnc2cc(Cl)ccc12 (centres unmarked) [chloroquine] | 7/8 | The majority of these neurons also responded | –
NCCc1c[nH]cn1 [histamine] | – | The majority of these neurons also responded | –
LL-37: cationic antimicrobial peptide, cathelicidin (LLGDFFRKSKEKIGKEFKRIVQRIKDFLRNLVPRTES; Antibacterial peptide LL-37; UniProt P49913 134-170, looked up) | – | – | can cause mast cell degranulation
COc1cc(CNC(=O)CCCC/C=C/C(C)C)ccc1O [capsaicin] | – | The majority of these neurons also responded | –
